According to patent US8410056B2, “Pro-oxidant anti-cancer compounds” (priority 2006, dated 2013):
“Also recorded” adds a separate entry of the source. Ends that are not written are not given here.

Columns and labels:
[1] = tested on: erbB2 highly positive breast carcinomas; conditions: α-TOS 10 μmoles i.p. every 3 d; 3-BP 0.2 μmoles daily intratumorally
Protocol: (A) Nude mice were inoculated with MCF-7 cells and, after tumors became established, the animals were treated once every 3 d with 10 μmoles per mouse of α-TOS dissolved in DMSO or with DMSO alone, by intraperitoneal (i.p.) injection. Tumor size was measured using calipers and was correlated to the size of the carcinomas at the onset of the therapy. Four animals were used in each group. The results shown are mean values±S.E. The symbol ‘*’ denotes significant difference (p<0.05). (B) Female FVB/N erbB2 mice with palpable tumors (see General Materials and Methods) received either 10 μmoles α-TOS solubilized in corn oil/4% ethanol (n=11) or the corn oil/4% ethanol alone (control, n=9) by i.p. injection once every 3 d, or 0.2 μmoles 3-BP (n=8) in PBS at the tumor site every day. Tumor size was recorded using calipers. Two independent experiments were conducted. Results are represented as mean values±S.E. The symbol ‘*’ denotes significant difference (p<0.05) in the analysis of variance between the 3-BP and α-TOS curves.
Mouse tumor experiments. Nude mice were inoculated subcutaneously with MCF-7 cells (2×10^6 cells/mouse). After tumors developed (diameter of 3-7 mm), mice were injected intraperitoneally with 10 μmoles α-TOS in DMSO every 3 days. Control mice were injected with an equal volume (100 μl) of DMSO only. Tumor size was estimated by measuring with digital calipers. A colony of transgenic FVB/N2O2 rat c-neu mice carrying the rat HER-2/neu protooncogene driven by the MMTV promoter on the H-2^q FVB/N background (Guy et al, 1992) was established at the Griffith University Animal Facility and maintained under strict inbreeding conditions. The presence of the transgene was routinely confirmed by PCR. Approximately 70% of the female mice developed spontaneous mammary carcinomas with a mean latency time of 10 months. Female transgenic FVB/N2O2 rat c-neu mice bearing progressively growing tumors with a mean diameter of 10±5 mm were randomly assigned to control or treatment groups. Tumor size was measured using digital calipers. […]

[2] = tested on: MDA-MB-453, MCF-7 and NeuTL breast cancer cells; experiment: ATP bioluminescence assay; type: cell-based, human; murine; conditions: 6 or 24 h; normoxia or hypoxia
Protocol: (§1) Cell culture and treatment. […] Cells were cultured in DMEM with 10% FCS, 100 U/ml penicillin and 100 μg/ml streptomycin at 37° C. in a humidified atmosphere of 5% CO2. Mitochondrial complex I-deficient (Breen and Scheffler 1979; DeFrancesco et al 1976; Scheffler et al 2004) and complex II-deficient cells (Albayrak et al 2003; Oostveen et al 1995) were grown in DMEM with 10% FCS, […] glucose and non-essential amino acids.
(§2) At approximately 70% confluency, cells were treated with up to 50 μM α-TOS (Sigma), up to 100 μM 3-BP (Aldrich) or 30 ng/ml of human recombinant tumor necrosis factor-related apoptosis—inducing ligand (TRAIL) (Weber et al, 2002) under normoxic or hypoxic conditions. For hypoxia, cells overlaid with nitrogen-purged medium were placed in a hypoxic chamber pre-flushed extensively with nitrogen. The hypoxic chamber with cells was then placed in the incubator as required. α-TOS was dissolved in ethanol and used such that the final ethanol concentration in cell culture medium was <0.1% (v/v). Stock solutions of 3-BP were prepared in PBS prior to use.
ATP measurement. MDA-MB-453 and NeuTL cells were seeded at 2×10^5 per ml and MCF-7 cells at 1.2×10^5 per ml into 96-well tissue culture microtitre plates and allowed to recover overnight before use. Cells were incubated for 6 or 24 h with α-TOS or 3-BP under normoxia or hypoxia as described above. ATP levels were then measured using an ATP bioluminescence assay kit HSII (Roche Applied Science) according to the manufacturer's instructions. Briefly, control or treated cells were transferred into black microtitre plates after incubation for 5 min at room temperature with the cell lysis reagent. Luciferase reagent was added and the signal detected immediately using a Fluorostar Optima plate reader (BMG Labtech). Triplicate wells were read for each condition and data evaluated using a standard calibration curve prepared with known concentrations of ATP.

[3] = tested on: MCF-7 cells; experiment: Apoptosis, annexin V-FITC method; type: cell-based, human; conditions: MCF-7 (erbB2-low); 24 h; normoxia or hypoxia
Protocol: as §1, §2
Apoptosis assessment. Apoptosis was quantified using the annexin V-FITC method, which detects phosphatidyl serine externalized in the early phases of apoptosis (Boersma et al, 1996). Briefly, cells were plated at 10^5 per well in 24-well plates and, after an overnight recuperation, treated with α-TOS or 3-BP alone or in combination. Floating and attached cells were harvested, washed with PBS, resuspended in 0.2 ml binding buffer (10 mM Hepes, 140 mM NaCl, 5 mM CaCl2, pH 7.4), incubated for 30 min at 4° C. with 2 μl annexin V-FITC (PharMingen), supplemented with 200 μl of 50 μg/ml propidium iodide (PI; Sigma), and analyzed by flow cytometry (FACScalibur, Becton Dickinson) using channel 1 for annexin V-FITC binding and channel 2 for PI staining. Cell death was quantified as the percentage of cells with increased annexin V binding and PI staining. […]

[4] = target: T1, complex II/SDH-dependent activity in NeuTL cells (Mus musculus, UniProt Q8K2B3+Q9CQA3+Q9CXV1+Q9CZB0); experiment: MTT reduction assay of complex II/SDH activity in whole cells; type: cell-based, murine; conditions: for inhibition of MTT reduction after MitoQ pre-incubation: cells pre-incubated 1 h with MitoQ; for enzymatic reduction of MTT: within a few hours of treatment
T1 construct: For specifically measuring complex II activity in whole cells; endogenous in cells; host or cells: NeuTL murine breast cancer cells
Protocol: MTT assay. MTT solutions were prepared immediately before use by dissolving 2.5 mg/ml 3-(4,5-dimethyl[…] (MTT) (Sigma) in PBS alone or phenol red-free RPMI medium containing 20 mM succinic acid, pH 7.4. Stock solutions of 3-nitropropionic acid (3NPA) in ethanol, thenoyltrifluoroacetone (TTFA) in DMSO, 3-BP in PBS, α-TOS in DMSO, and MitoQ (Alleva et al, 2003, James et al, 2005) in ethanol were prepared. The drugs were tested on NeuTL cells cultured in exponential growth phase in 96-well microtitre plates using 4-8 replicate wells per dilution assayed. To assess the ability of MitoQ to restore MTT reduction, cells were pre-incubated for 60 min with 2 or 5 μM MitoQ. Final concentrations of ethanol or DMSO in cultures were ≦0.1%. Treated and control cells were allowed to reduce MTT to blue formazan crystals for 2 or 4 h at 37° C. and 5% CO2. After incubation, culture supernatants were removed except for 30 μl, before the formazan crystals were solubilized by addition of 150 μl DMSO, and absorbance values were measured at 570 nm using a Fluorostar Optima plate reader.
To this end, the present inventors investigated whether α-TOS interferes with UbQ binding in complex II. For specifically measuring complex II activity in whole cells, a short-term (1-2 h) assay was used based on the reduction of the tetrazolium salt, MTT (Maehara et al, 1988). […] For this, oxidative respiration of murine NeuTL breast cancer cells was sustained on high levels of succinate (20 mM), thereby promoting the SDH activity of complex II (Maehara et al, 1988). The cells were then assayed within 1-2 h for their ability to enzymatically reduce MTT, which under conditions of high succinate becomes a specific indicator of complex II/SDH-dependent activity (Maehara et al, 1988, Berridge and Tan, 1993).

[5] = tested on: MDA-MB-453 cells; experiment: Apoptosis, annexin V-FITC method; type: cell-based, human; conditions: for apoptosis: MDA-MB-453 (erbB2-high), normoxia or hypoxia; for apoptosis after Akt1 knock-down: pre-treated with 60 pM Akt1 siRNA for 24 h, then drug 24 h
Protocol: as §1, §2
Apoptosis assessment. Apoptosis was quantified using the annexin V-FITC method, which detects phosphatidyl serine externalized in the early phases of apoptosis (Boersma et al, 1996). Briefly, cells were plated at 10^5 per well in 24-well plates and, after an overnight recuperation, treated with α-TOS or 3-BP alone or in combination. Floating and attached cells were harvested, washed with PBS, resuspended in 0.2 ml binding buffer (10 mM Hepes, 140 mM NaCl, 5 mM CaCl2, pH 7.4), incubated for 30 min at 4° C. with 2 μl annexin V-FITC (PharMingen), supplemented with 200 μl of 50 μg/ml propidium iodide (PI; Sigma), and analyzed by flow cytometry (FACScalibur, Becton Dickinson) using channel 1 for annexin V-FITC binding and channel 2 for PI staining. Cell death was quantified as the percentage of cells with increased annexin V binding and PI staining.
RNA interference (RNAi). Short-interfering RNA (siRNA) oligonucleotides with 3′-dTdT overhangs specific for Akt1 were synthesized by Qiagen. The sequences are as follows: target sequence: […] (SEQ ID NO 2); siRNA duplex sequences: sense—r([…] )dTdT (SEQ ID NO 3), antisense—r([…] )dTdT (SEQ ID NO 4). The transfection of cultured MDA-MB-453 cells with siRNA was performed using OligofectAmine (Invitrogen) and OptiMEM according to the manufacturer's instructions. Briefly, cells were allowed to reach 50% confluency and supplemented with […] siRNA pre-incubated with OligofectAmine and overlayed with OptiMEM. Cells were washed 24 h later with PBS, overlayed with complete DMEM and treated as required after an additional 24 h.
Transfection of MDA-MB-453 cells with siRNAs was performed using OligofectAmine and OptiMEM. Briefly, cells were allowed to reach ˜50% confluency and supplemented with 60 pmol/l siRNA pre-incubated with OligofectAmine and overlayed with OptiMEM. Cells were washed 24 h later with PBS, overlaid with complete DMEM, cultured for an additional 24 h, 48 h and transgene expression confirmed using Western blotting before they were used for further experiments.

[6] = tested on: B16-F1/nude mice; conditions: Kogure et al, 2005; cited from earlier work
[7] = tested on: Jurkat; conditions: cited from earlier work
[8] = tested on: A549; conditions: cited from earlier work
[9] = tested on: C1271; conditions: Kogure et al, 2004; cited from earlier work
[10] = tested on: NB4, HT93; conditions: cited from earlier work
[11] = tested on: retinoic acid receptors (RARs); conditions: reporter constructs; cited from earlier work
[12] = tested on: Jurkat, HVT11, MCF7, MCF7-C3, U937, Meso-2; conditions: cited from earlier work
[13] = tested on: all cells; conditions: Zhang et al, 2001b; cited from earlier work
[14] = tested on: breast carcinomas with high erbB2 expression; experiment: Breast carcinomas in FVB/N2O2 c-neu mice, ultrasound imaging; type: in vivo
Protocol: FIG. 11. Peptide conjugate LTVSPWY-α-TOS (SEQ ID NO 1) suppresses breast carcinomas. FVB/N2O2 c-neu female mice of >7 months of age with breast carcinomas, as detected by ultrasound imaging (USI), were treated by intraperitoneal injection of the vehicle or 5 μmol per mouse per dose of LTVSPWY-α-TOS (SEQ ID NO 1) solubilised in corn oil/ethanol (100:5, v/v) at times shown. The tumours were visualised and quantified using USI and are expressed relative to their volume at the onset of the treatment (A). […] The volume was […] at the onset of the experiment for both tumors. Data shown are mean values±SD (n=4-6) and the USI images are representative of tumours from each group.
This example describes the targeting of an α-TOS pro-drug to cancer cells over-expressing the receptor tyrosine kinase erbB2. An adduct of α-TOS was linked to the heptapeptide LTVSPWY (SEQ ID NO 1), which peptide is known for targeting cancer cells over-expressing erbB2. […] In fact, there was an unexpected 90% relative reduction in size of treated tumors compared to the untreated control.

T1 sequence (Q8K2B3 43-664): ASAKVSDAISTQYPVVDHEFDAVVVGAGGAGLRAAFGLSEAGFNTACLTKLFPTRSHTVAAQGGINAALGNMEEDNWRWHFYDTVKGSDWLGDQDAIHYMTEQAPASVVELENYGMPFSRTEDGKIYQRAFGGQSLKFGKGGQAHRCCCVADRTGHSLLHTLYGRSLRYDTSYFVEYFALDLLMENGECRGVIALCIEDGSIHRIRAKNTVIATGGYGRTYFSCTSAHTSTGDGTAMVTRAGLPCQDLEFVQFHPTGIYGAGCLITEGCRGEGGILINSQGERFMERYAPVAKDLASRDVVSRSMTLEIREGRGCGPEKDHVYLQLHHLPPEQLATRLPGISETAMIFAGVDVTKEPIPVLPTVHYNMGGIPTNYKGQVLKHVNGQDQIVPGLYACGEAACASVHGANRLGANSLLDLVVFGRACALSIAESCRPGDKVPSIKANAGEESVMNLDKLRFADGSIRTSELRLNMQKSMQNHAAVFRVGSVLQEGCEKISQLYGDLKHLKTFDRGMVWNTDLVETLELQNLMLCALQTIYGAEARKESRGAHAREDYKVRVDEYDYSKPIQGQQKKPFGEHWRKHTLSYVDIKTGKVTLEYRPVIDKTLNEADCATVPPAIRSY
T1 sequence (Q9CQA3 31-282): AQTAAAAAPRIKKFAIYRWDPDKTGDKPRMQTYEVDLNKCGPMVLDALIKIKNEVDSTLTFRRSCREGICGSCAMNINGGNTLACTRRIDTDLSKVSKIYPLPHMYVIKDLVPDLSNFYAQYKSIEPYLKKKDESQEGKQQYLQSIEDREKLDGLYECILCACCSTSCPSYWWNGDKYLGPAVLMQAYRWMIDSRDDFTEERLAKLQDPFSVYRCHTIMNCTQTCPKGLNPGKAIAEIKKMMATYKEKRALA
T1 sequence (Q9CZB0 30-169): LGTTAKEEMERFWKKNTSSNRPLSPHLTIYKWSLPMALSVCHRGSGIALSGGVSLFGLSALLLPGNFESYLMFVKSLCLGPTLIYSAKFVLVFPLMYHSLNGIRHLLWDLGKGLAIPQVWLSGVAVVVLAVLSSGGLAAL
T1 sequence (Q9CXV1 57-159): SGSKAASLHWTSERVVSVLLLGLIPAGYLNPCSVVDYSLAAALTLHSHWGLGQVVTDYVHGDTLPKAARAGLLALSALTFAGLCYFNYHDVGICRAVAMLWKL

O=C(O)C(=O)CBr [Compound 3-BP, 3-bromopyruvate, reference compound]
tumor growth [1]: either growth arrest or partial regression | cellular ATP levels [2]: more potent inhibitors than α-TOS | apoptosis [3]: more sensitive to killing by 3-BP under hypoxia than normoxia | complex II-mediated MTT reduction ([4]; absence of added succinate, 4 h): potent inhibitors of the complex II-mediated MTT reduction | inhibition of MTT reduction after MitoQ pre-incubation [4]: not significantly different | enzymatic reduction of MTT [4]: significant decreases occurring in the levels of MTT reduction | apoptosis [5]: strikingly resistant to killing by 3-BP, even with concentrations as high as 100 μM | apoptosis after Akt1 knock-down [5]: particularly marked increase in cytotoxic responsiveness; also recorded: sensitizes

Cc1c(C)c2c(c(C)c1OC(=O)C(=O)O)CCC(C)(CCCC(C)CCCC(C)CCCC(C)C)O2 (centres unmarked) [Compound 10]
cytotoxicity in mice inoculated with B16-F1 melanoma cells [6]: non-selective cytotoxicity

Cc1c(C)c2c(c(C)c1OC(=O)CC(=O)O)CCC(C)(CCCC(C)CCCC(C)CCCC(C)C)O2 (centres unmarked) [Compound 11]
cytotoxicity in mice inoculated with B16-F1 melanoma cells [6]: non-selective cytotoxicity

COc1c(C)c(C)c2c(c1C)CCC(C)(CCCC(C)CCCC(C)CCCC(C)C)O2 (centres unmarked) [Compound 18]
pro-apoptotic activity [7]: inactive

CCC(=O)Oc1c(C)c(C)c2c(c1C)CCC(C)(CCCC(C)CCCC(C)CCCC(C)C)O2 (centres unmarked) [Compound 19]
pro-apoptotic activity [8]: inactive

Cc1c(C)c2c(c(C)c1OC(=O)CCCCCC(=O)O)CCC(C)(CCCC(C)CCCC(C)CCCC(C)C)O2 (centres unmarked) [Compound 24]
pro-apoptotic activity [9]: no activity at all

CCOC(=O)CCC(=O)Oc1c(C)c(C)c2c(c1C)CCC(C)(CCCC(C)CCCC(C)CCCC(C)C)O2 (centres unmarked) [Compound 25]
pro-apoptotic activity [9]: without pro-apoptotic activity

CC(C=CC1=C(C)CCCC1(C)C)=CC=CC(C)=CC(=O)Oc1c(C)c(C)c2c(c1C)CCC(C)(CCCC(C)CCCC(C)CCCC(C)C)O2 (centres unmarked) [Compound 28]
IC50 [10]: 100 to 1000 nM | agonism at retinoic acid receptors [11]: acted as agonists for retinoic acid receptors (RARs)

CC(C=CC1=C(C)CCCC1(C)C)=CC=CC(C)=CC(=O)Oc1c(C)c(C)c2c(c1C)CCC(C)(CCCC(C)CCCC(C)CCCC(C)C)O2 (centres unmarked) [Compound 29]
agonism at retinoic acid receptors [11]: acted as agonists for retinoic acid receptors (RARs)

Cc1cc(OC(=O)CCC(=O)O)c(C)c2c1OC(C)(CCCC(C)CCCC(C)CCCC(C)C)CC2 (centres unmarked) [Compound 32]
IC50, relative to α-TOS [12]: 50% of α-TOS

O=C(CC(=O)C(F)(F)F)c1cccs1 [TTFA, 4,4,4-trifluoro-1-(2-thienyl)-1,3-butanedione]
inhibition of MTT reduction after MitoQ pre-incubation [4]: significantly overcome by pre-incubation of the cells with MitoQ | enzymatic reduction of MTT [4]: significantly inhibited the enzymatic reduction of MTT | toxicity to cells [13]: toxic to all cells

LTVSPWY-α-TOS: adduct of α-TOS linked to the heptapeptide LTVSPWY (SEQ ID NO 1) (also: α-tocopheryl succinate adduct, attachment site not given here)
tumour volume ([14]; day 15, 5 μmol per dose per mouse i.p., representative tumour, volume −40 mm^3 at onset): 34.8 mm^3 | relative reduction in size of treated tumors compared to the untreated control ([14]; mouse, in vivo): 90%

B1: TRAIL: human recombinant tumor necrosis factor-related apoptosis—inducing ligand (protein, UniProt P50591 1-281, looked up)
Tumor necrosis factor ligand …: MAMMEVQGGPSLGQTCVLIVIFTVLLQSLCVAVTYVYFTNELKQMQDKYSKSGIACFLKEDDSYWDPNDEESMNSPCWQVKWQLRQLVRKMILRTSEETISTVQEKQQNISPLVRERGPQRVAAHITGTRGRSNTLSSPNSKNEKALGRKINSWESSRSGHSFLSNLHLRNGELVIHEKGFYYIYSQTYFRFQEEIKENTKNDKQMVQYIYKYTSYPDPILLMKSARNSCWSKDAEYGLYSIYQGGIFELKENDRIFVSVTNEHLIDMDHEASFFGAFLVG
cellular ATP levels [2]: more potent inhibitors than α-TOS | apoptosis [5]: much more resistant to apoptosis | apoptosis after Akt1 knock-down [5]: sensitizes
